Measurements from US12089595B2, “Pseudomonas strains and their metabolites to control plant diseases” (T3 Bioscience, Inc., priority 2020, dated 2024).
In brackets after ≈: the same amount, converted by molar mass. Where two headings read alike, the source gives them in different places.

What was measured:
Erwinia amylovora 1189 = assay: MIC antimicrobial assay (CLSI, 96 well plates); assay type: cell-based
[1] = system: Clavibacter michiganensis subsp. michiganensis NCPPB382; assay: MIC antimicrobial assay (CLSI, 96 well plates); assay type: cell-based
[2] = system: Pseudomonas syringae pv syringae 7046; assay: MIC antimicrobial assay (CLSI, 96 well plates); assay type: cell-based; details: Pseudomonas syringae pv syringae 7046 (Bacterial canker or blast)
E. amylovora = assay: Plate diffusion assay in LB plates; assay type: cell-based, Erwinia amylovora; details: 2 mg/mL; for zone of inhibition at 2000 µg/mL: Erwinia amylovora, read-out: Diameter of the Inhibitory zone
Text: Two assays were used for the antimicrobial test of 0617-T307 cell broth and metabolites. One is plate diffusion assay and the other one is microplate assay. LB plate was used for the plate diffusion assay of the antimicrobial activity of RejuAgro A containing fractions and cell broths against E. amylovora (Table 3).

[3] = system: Pseudomonas syringae pv. tomato PT30; assay: MIC antimicrobial assay (CLSI, 96 well plates); assay type: cell-based; details: Pseudomonas syringae pv. tomato PT30 (Tomato bacterial speck)
[4] = system: Erwinia amylovora 898 (streptomycin-resistant); assay: microbe, parasite or virus in culture; assay type: cell-based
[5] = system: Pectobacterium atrosepticum 942; assay: MIC antimicrobial assay (CLSI, 96 well plates); assay type: cell-based; details: Pectobacterium atrosepticum 942 (soft rot)
Erwinia amylovora 110 = assay: microbe, parasite or virus in culture; assay type: cell-based
[6] = system: Erwinia amylovora DM1 (streptomycin-resistant); assay: microbe, parasite or virus in culture; assay type: cell-based
[7] = system: Clavibacter michiganensis subsp. michiganensis Cmm 0317; assay: MIC antimicrobial assay (CLSI, 96 well plates); assay type: cell-based
[8] = system: Pseudomonas syringae pv. lachrymans 1188-1; assay: MIC antimicrobial assay (CLSI, 96 well plates); assay type: cell-based; details: Pseudomonas syringae pv. lachrymans 1188-1 (Angular Leaf Spot of Cucurbits)
[9] = system: Flavobacterium columnare #2; assay: MIC antimicrobial assay (CLSI, 96 well plates); assay type: cell-based; details: Flavobacterium columnare #2 (Fish columnaris disease), TYES
[10] = system: Pectobacterium parmentieri UPP163 936; assay: MIC antimicrobial assay (CLSI, 96 well plates); assay type: cell-based; details: UPP163936; Pectobacterium parmentieri UPP163 936 (soft rot)
[11] = system: Xanthomonas campestris pv. Pruni; assay: MIC antimicrobial assay (CLSI, 96 well plates); assay type: cell-based; details: Xanthomonas campestris pv. Pruni (Bacterial Spot of Peach)
[12] = system: Clavibacter michiganensis subsp. michiganensis Cmm 0690; assay: MIC antimicrobial assay (CLSI, 96 well plates); assay type: cell-based
[13] = system: Pseudomonas savastanoi pv. savastanoi; assay: MIC antimicrobial assay (CLSI, 96 well plates); assay type: cell-based
E coli O157:H7 = assay: MIC antimicrobial assay (CLSI, 96 well plates); assay type: cell-based
[14] = system: Methicillin-resistant staphylococcus aureus USA300; assay: microbe, parasite or virus in culture; assay type: cell-based
Dickeya dadantii 3937 = assay: MIC antimicrobial assay (CLSI, 96 well plates); assay type: cell-based; details: Dickeya dadantii 3937 (soft rot)
[15] = system: P. syringae (pv. tomato PT30, pv syringae 7046, pv. lachrymans 1188-1); assay: MIC antimicrobial assay; details: Pseudomonas syringae
[16] = system: Pseudomonas soli 0617-T307; assay: MIC antimicrobial assay (CLSI, 96 well plates)
[17] = system: Xanthomonas bacteria (Xanthomonas axonopodis pv. citri); assay: MIC antimicrobial assay; assay type: cell-based
E. amylovora 110 = assay: Greenhouse blossom blight assay on crabapples trees (RejuAgro A); assay type: in vivo, Erwinia amylovora
Experimental: To evaluate the biological control activity of RejuAgro A against Erwinia amylovora, greenhouse infection assay on crabapples trees was conducted at the University of Wisconsin-Milwaukee. Ten μg/mL was supplemented with 1% Polyethylene glycol (PEG) 4000 or 1% PEG4000 (negative control) were applied on full bloom trees flowers 3 hours prior to the inoculation and 24 hours post-inoculation. Approximately 10^8 CFU/mL of E. amylovora 110 strain resuspended in water was used as inoculum. The infection rate was calculated at around day 6 post inoculation. RejuAgro A can effectively suppress the blossom blight (Table 6).

[18] = system: Flavobacterium columnare MS-FC-4; assay: MIC antimicrobial assay (CLSI, 96 well plates); assay type: cell-based; details: MSFC4; Flavobacterium columnare MS-FC-4 (Fish columnaris disease), SHIEH
[19] = system: X. arboricola pv. Juglandis Xaj417; assay: microbe, parasite or virus in culture; assay type: cell-based, Xanthomonas arboricola pv. Juglandis; details: Xanthomonas arboricola, read-out: Diameter of the zone of inhibition
[20] = system: X. arboricola pv. Juglandis Xaj219; assay: microbe, parasite or virus in culture; assay type: cell-based, Xanthomonas arboricola pv. Juglandis; details: Xanthomonas arboricola, read-out: Diameter of the zone of inhibition
[21] = system: Pectobacterium carotovorum subsp. carotovorum wpp14 945; assay: MIC antimicrobial assay (CLSI, 96 well plates); assay type: cell-based; details: Pectobacterium carotovorum subsp. carotovorum wpp14 945 (soft rot)
[22] = system: Xanthomonas axonopodis pv. citri N40-SO5; assay: MIC antimicrobial assay (CLSI, 96 well plates); assay type: cell-based
[23] = system: Erwinia amylovora CA11 (streptomycin-resistant); assay: microbe, parasite or virus in culture; assay type: cell-based
[24] = system: Pectobacterium carotovorum subsp. brasiliensis 944; assay: MIC antimicrobial assay (CLSI, 96 well plates); assay type: cell-based; details: Pectobacterium carotovorum subsp. brasiliensis 944 (soft rot)
R. solanacearum Pss = assay: microbe, parasite or virus in culture; assay type: cell-based; details: Ralstonia solanacearum, read-out: Diameter of the zone of inhibition
[25] = system: Xanthomonas campestris pv. vesicatoria XV-16; assay: MIC antimicrobial assay (CLSI, 96 well plates); assay type: cell-based; details: Xanthomonas campestris pv. vesicatoria XV-16 (Tomato bacterial spot)
[26] = system: Xanthomonas arboricola pv. Juglandis 219; assay: MIC antimicrobial assay (CLSI, 96 well plates); assay type: cell-based
[27] = Staphylococcus aureus, MRSA / USA300

Compound	MIC [1]	MIC [2]	zone of inhibition at 2000 µg/mL (E. amylovora)	MIC [3]	MIC ([4]; Erwinia amylovora)	MIC [5]	MIC (Erwinia amylovora 110)	MIC ([6]; Erwinia amylovora)	MIC [7]	MIC [8]	MIC [9]	MIC [10]	MIC ([11]; read-out: MIC)	MIC [12]	MIC (E coli O157:H7)	MIC [14, 27]	MIC (Dickeya dadantii 3937)	MIC [15]	MIC ([16]; Pseudomonas soli, 0617T307)	MIC [17]	further results
CSC1=C(C)C(=O)C(=O)NC1=O [RejuAgro A]	6.25 µg/mL (≈ 33.7 µM)	20 µg/mL (≈ 108 µM)	11 mm	40 µg/mL (≈ 216 µM)	10 µg/mL (≈ 54 µM)	20 µg/mL (≈ 108 µM)	5 µg/mL (≈ 27 µM)	10 µg/mL (≈ 54 µM)	1.56 µg/mL (≈ 8.42 µM)	10 µg/mL (≈ 54 µM)	5 µg/mL (≈ 27 µM)	40 µg/mL (≈ 216 µM)	40 µg/mL (≈ 216 µM)	12.5 µg/mL (≈ 67.5 µM)	40 µg/mL (≈ 216 µM)	> 40 µg/mL	40 µg/mL (≈ 216 µM)	40 µg/mL (≈ 216 µM)	> 40 µg/mL	5 µg/mL (≈ 27 µM)	MIC (Erwinia amylovora 1189; Erwinia amylovora, 1189, Erwinia amylovora 1189 (Fire blight on apples/pears)): 5 µg/mL (≈ 27 µM); Diameter of the Inhibitory zone (E. amylovora): showed the antimicrobial activity; MIC ([13]; Pseudomonas savastanoi): 40 µg/mL (≈ 216 µM); MIC ([14]; MRSA USA300 (Skin infection, sepsis)): >40 µg/mL; MIC ([16]; Pseudomonas soli 0617-T307 (RejuAgro A producer), LB media): >40 µg/mL; Infection rate (E. amylovora 110; 10 μg/mL with 1% PEG4000, 3 hours prior and 24 hours post-inoculation, around day 6, negative control 50.8%): 12.3%; MIC [18]: 5 µg/mL (≈ 27 µM); zone of inhibition at 2000 µg/mL [19]: 10 mm; zone of inhibition at 2000 µg/mL [20]: 5 mm; MIC [21]: 40 µg/mL (≈ 216 µM); MIC [22]: 5 µg/mL (≈ 27 µM); MIC ([23]; Erwinia amylovora): 10 µg/mL (≈ 54 µM); MIC [24]: 40 µg/mL (≈ 216 µM); zone of inhibition at 2000 µg/mL (R. solanacearum Pss): 5 mm; MIC [25]: 2.5 µg/mL (≈ 13.5 µM); MIC ([26]; Xanthomonas arboricola): 6.25 µg/mL (≈ 33.7 µM)
[H]/N=C(/N)N[C@H]1[C@H](O)[C@@H](O)[C@H](O[C@@H]2O[C@@H](C)[C@](O)(C=O)[C@H]2O[C@@H]2O[C@@H](CO)[C@H](O)[C@@H](O)[C@@H]2NC)[C@@H](N/C(N)=N\[H])[C@@H]1O [Streptomycin, reference compound]	12.5 µg/mL (≈ 21.5 µM)	2.5 µg/mL (≈ 4.3 µM)	24 mm	2.5 µg/mL (≈ 4.3 µM)	> 40 µg/mL	20 µg/mL (≈ 34.4 µM)	5 µg/mL (≈ 8.6 µM)	> 40 µg/mL	3.12 µg/mL (≈ 5.36 µM)	5 µg/mL (≈ 8.6 µM)	0.31 µg/mL (≈ 0.533 µM)	40 µg/mL (≈ 68.8 µM)	> 40 µg/mL	12.5 µg/mL (≈ 21.5 µM)	20 µg/mL (≈ 34.4 µM)	10 µg/mL (≈ 17.2 µM)	20 µg/mL (≈ 34.4 µM)	2.5 to 5 µg/mL (≈ 4.3 to 8.6 µM)	> 40 µg/mL	0.16 µg/mL (≈ 0.275 µM)	MIC (Erwinia amylovora 1189; Erwinia amylovora 1189 (Fire blight on apples/pears)): 20 µg/mL (≈ 34.4 µM); MIC (Erwinia amylovora 1189; Erwinia amylovora, 1189, Erwinia amylovora 1189 (Fire blight on apples/pears), read-out: MIC): 10 µg/mL (≈ 17.2 µM); MIC ([4]; Erwinia amylovora 898, spontaneous streptomycin-resistant): >40 µg/mL; MIC ([6]; Erwinia amylovora DM1, streptomycin-resistant): >40 µg/mL; MIC [11]: >40 µg/mL; MIC ([13]; Pseudomonas savastanoi pv. savastanoi (Olive knot), read-out: MIC): 0.31 µg/mL (≈ 0.533 µM); Infection rate (E. amylovora 110; 200 μg/mL, around day 6 post inoculation): 5.7%; MIC [18]: 1.25 µg/mL (≈ 2.15 µM); zone of inhibition at 100 µg/mL [19]: 19 mm; zone of inhibition at 100 µg/mL [20]: 13 mm; MIC [21]: 40 µg/mL (≈ 68.8 µM); MIC [22]: 0.16 µg/mL (≈ 0.275 µM); MIC ([23]; Erwinia amylovora): > 40 µg/mL; MIC ([23]; Erwinia amylovora CA11, streptomycin-resistant): >40 µg/mL; MIC [24]: 40 µg/mL (≈ 68.8 µM); zone of inhibition at 100 µg/mL (R. solanacearum Pss): 15 mm; MIC [25]: 20 µg/mL (≈ 34.4 µM); MIC ([26]; Xanthomonas arboricola pv. Juglandis 219 (walnut blight), read-out: MIC): 0.39 µg/mL (≈ 0.671 µM)
